# Experimental data from patent US9211292B2, “Preventing or reducing drug abuse and overdose events” (ALITAIR PHARMACEUTICALS INC, priority 2011, dated 2015).
# Experiment: Dissolution testing, simulated empty stomach (USP 31 NF26 Apparatus 2, 0.1N HCl)
# Assay type: physicochemical
# Settings: for HCBT Released / HCBT Released, Percent of Original Dose: 80 mg dose, 0.1N HCl 250 ml 37° C.
# Experimental: The resinate or pure HCBT was weighed to determine the dose to be tested. The resinate or pure HCBT powder was added directly to the vessel for dissolution testing without the use of a capsule or tablet and its associated excipients. The conditions in the first stage to simulate dissolution in an empty stomach were as follows:
# The above resinate of the invention having an 11.5% HCBT loading was tested at dosages of 10 mg, 40 mg and 80 mg HCBT. The resinate of the invention having 60.7% HCBT loading was tested at dosages of 10 and 80 mg HCBT. […] A given dose was placed in the dissolution apparatus and stirred for a given length of time. At the end of that time, the quantity of HCBT released was determined by high pressure liquid chromatography.
structure (smiles),measurement,setting,value
"COc1ccc2c3c1O[C@H]1C(=O)CC[C@H]4[C@@H](C2)N(C)CC[C@]314 [Pure HCBT, Hydrocodone bitartrate]",drug released (FIG. 1),"80 mg dosage in powder form, simulated empty stomach",released essentially all of the drug
same,HCBT Released,15 min,78.8 mg
same,"HCBT Released, Percent of Original Dose",15 min,98.6% of Original Dose
same,HCBT Released,30 min,79.2 mg
same,"HCBT Released, Percent of Original Dose",30 min,99.0% of Original Dose
same,HCBT Released,45 min,79.4 mg
same,"HCBT Released, Percent of Original Dose",45 min,99.2% of Original Dose
same,HCBT Released,60 min,79.6 mg
same,"HCBT Released, Percent of Original Dose",60 min,99.5% of Original Dose
